{"source": "patent US20240368667A1", "about": "“RAPID, LABEL-FREE ANTIBIOTIC SUSCEPTIBILITY OF BACTERIA DIRECTLY FROM POSITIVE BLOOD OR BODILY FLUID/CULTURE” (priority 2021, published 2024)", "key": {"[1]": {"test_system": "P. aeruginosa", "assay": "Broth microdilution (BMD) MIC", "format": "cell-based, Pseudomonas aeruginosa", "set-up": "key to susceptibility classification, BMD: (S) sensitive; (I) intermediate; (R) resistant", "conditions": "for MIC: Pseudomonas aeruginosa", "protocol": "(§1) Microbroth dilution for minimum inhibitory concentrations (MIC) with and without sucrose recovery. To isolate bacteria without sucrose, culture media from positive BacT/alert FA PLUS aerobic culture bottles (bioMérieux, Durham, NC) was serially diluted and plated onto LB agar (Lennox; Sigma-Aldrich, St. Louis, MO). Bacterial suspensions were prepared by resuspending colonies in CAMHB with incubation on a MaxQ 4000 incubator shaker (Thermo Fisher Scientific, Waltham, MA) at 37° C. and ˜225 rpm for 3 hours. Bacteria recovered via Method 2 were diluted 10-fold in CAMHB. Following incubation or sucrose recovery and dilution, bacterial suspensions were adjusted to ˜0.004 OD600 with CAMHB and a 50-μL aliquot distributed to each well of a 96-well plate containing CAMHB with and without clinically relevant antibiotics (2-fold dilution series). Gram-negative plates included: ceftazidime (3rd generation cephalosporin, RPI corp., Mount Prospect, IL), cefepime (4th generation cephalosporin, Chem-Impex Int'l, Wood Dale, IL), meropenem (carbapenem, Tokyo Chemical Industry, Tokyo, Japan), levofloxacin (quinolone, Alfa Aesar, Haverhill, MA), and tobramycin (aminoglycoside, MP Biomedicals LLC, Santa Ana, CA), while S. aureus plates contained: oxacillin (beta-lactam, Sigma-Aldrich, St. Louis, MO), vancomycin (glycopeptide, Santa Cruz Biotechnology, Dallas, TX), erythromycin (macrolide, Sigma-Aldrich, St. Louis, MO), clindamycin ([…]), and ciprofloxacin (fluoroquinolone, Sigma-Aldrich, St. Louis, MO). Antibiotic plates were incubated at 37° C. for 16-20 hours (gram-negative) or 35° C. for 24 hours (S. aureus), at which time, plates were removed from the incubator and visually inspected for bacterial growth. The MIC was set at the lowest antibiotic concentration at which no growth was detected."}, "[2]": {"test_system": "P. aeruginosa 77", "assay": "Microbroth dilution MIC with and without sucrose recovery", "format": "cell-based, Pseudomonas aeruginosa", "conditions": "P. aeruginosa 77 recovered by standard plating; MIC given as multiple of S/I/R", "protocol": "as §1\nInfluence of Sucrose on Bacterial MIC. To rule out the potential effect of sucrose exposure in bacterial antibiotic susceptibility, microbroth dilution studies were performed on bacteria recovered using standard practices (i.e. plating following positive blood culture) and through selective lysis coupled with centrifugation through the sucrose cushion (Method 2)."}, "[3]": {"test_system": "P. aeruginosa", "assay": "Direct flow cytometric AST (high-throughput flow cytometry, HTFC) of sucrose-recovered bacteria", "format": "cell-based, Pseudomonas aeruginosa", "set-up": "key to susceptibility classification, HTFC: (S) sensitive; (I) intermediate; (R) resistant", "conditions": "for MIC: Pseudomonas aeruginosa, read-out: Minimum inhibitory concentration, HTFC", "protocol": "AST workflow using bacteria recovered directly from positive blood culture. A 1-mL aliquot of bacteria recovered using separation method 2 was diluted 10-fold in CAMHB, the OD600 adjusted to ˜0.01, and a 50 μL aliquot distributed into each well of a 96-well plate containing CAMHB with and without ceftazidime, tobramycin, and either meropenem (E. coli and P. aeruginosa) or oxacillin (S. aureus). Following Clinical and Laboratory Standards Institute (CLSI) guidelines^33, 2% sodium chloride (NaCl) was present in wells containing oxacillin to assist in the detection of methicillin-resistant S. aureus (MRSA). […] To account for observed differences in doubling and lag times, E. coli and P. aeruginosa were incubated for 4 hours at 37° C., while S. aureus was incubated for 9 hours at 35° C. After incubation, antibiotic plates were removed from the incubator and directly stored on ice (i.e. no post-processing) until high-throughput flow cytometry (BD LSRFortessa with HTS-system, BD, Franklin Lakes, NJ). No-antibiotic controls and antibiotic-treated samples were handled identically.\nMIC Determination by flow cytometry. Because antibiotic effects are observed in both the position of scatter signatures (morphology changes) and count rates (growth inhibition), a modified count rate, accounting for scatter position, was used to evaluate susceptibility. Briefly, no-antibiotic control populations (triplicate) were pooled, binned, and a convex hull boundary set at 1-standard deviation above the background (not including bins with zero counts) was drawn. […] The overlap ratio, measuring changes in morphology, was then computed by dividing the number of sample events within the no-antibiotic control boundary by the total number of events within the sample. As an increase in count rate attributed to viable bacteria in antibiotic-treated samples is not scientifically meaningful, the fractional overlap was multiplied by the minimum of the control and sample count rates to generate a modified count rate accounting for antibiotic-induced morphological changes. All modified count rates were normalized by the average of the no-antibiotic controls. For automatic MIC determination, normalized count rates corresponding to n (index of predicted MIC), n+1, n+2 were iteratively fit to a linear function with a frameshift of n+1 between iterations (FIGS. 8 and 9). […] A threshold of −0.01 instead of zero was used to mitigate the influence of small fluctuations in normalized count rates on susceptibility determinations."}, "[4]": {"test_system": "E. coli", "assay": "Broth microdilution (BMD) MIC", "format": "cell-based, Escherichia coli", "set-up": "key to susceptibility classification, BMD: (S) sensitive; (I) intermediate; (R) resistant", "conditions": "broth microdilution; for MIC: Escherichia coli, read-out: Minimum inhibitory concentration, BMD", "protocol": "as §1"}}, "note": "Like-named read-outs stand apart in the source and are kept apart here."}
{"smiles": "C[C@@H](O)[C@H]1C(=O)N2C(C(=O)O)=C(S[C@@H]3CN[C@H](C(=O)N(C)C)C3)[C@H](C)[C@H]12", "note": "[Meropenem, meropenem]", "values": [{"measurement": "susceptibility classification, BMD", "setting": "[1]; P. aeruginosa Blood Culture B, broth microdilution", "value": "(R)"}, {"measurement": "susceptibility classification, BMD", "setting": "[1]; P. aeruginosa Blood Culture C, broth microdilution", "value": "(S)"}, {"measurement": "susceptibility classification, BMD", "setting": "[1]; P. aeruginosa PA7, broth microdilution", "value": "(S)"}, {"measurement": "susceptibility classification, BMD", "setting": "[1]; P. aeruginosa PA46, broth microdilution", "value": "(S)"}, {"measurement": "susceptibility classification, BMD", "setting": "[1]; P. aeruginosa PA49, broth microdilution", "value": "(S)"}, {"measurement": "susceptibility classification, BMD", "setting": "[1]; P. aeruginosa PA81, broth microdilution", "value": "(R)"}, {"measurement": "susceptibility classification, BMD", "setting": "[1]; P. aeruginosa PAO1, broth microdilution", "value": "(S)"}, {"measurement": "MIC", "setting": "[1]; P. aeruginosa Blood Culture B, broth microdilution, read-out: Minimum inhibitory concentration, BMD", "value": 8, "unit": "µg/mL"}, {"measurement": "MIC", "setting": "[1]; P. aeruginosa Blood Culture C, broth microdilution, read-out: Minimum inhibitory concentration, BMD", "value": 0.25, "unit": "µg/mL"}, {"measurement": "MIC", "setting": "[1]; P. aeruginosa PA7, broth microdilution, read-out: Minimum inhibitory concentration, BMD", "value": 1, "unit": "µg/mL"}, {"measurement": "MIC", "setting": "[1]; P. aeruginosa PA46, broth microdilution, read-out: Minimum inhibitory concentration, BMD", "value": 0.25, "unit": "µg/mL"}, {"measurement": "MIC", "setting": "[1]; P. aeruginosa PA49, broth microdilution, read-out: Minimum inhibitory concentration, BMD", "value": 0.5, "unit": "µg/mL"}, {"measurement": "MIC", "setting": "[1]; P. aeruginosa PA81, broth microdilution, read-out: Minimum inhibitory concentration, BMD", "value": 8, "unit": "µg/mL"}, {"measurement": "MIC", "setting": "[1]; P. aeruginosa, strain not named (FIG. 13), read-out: MIC as determined by broth microdilution", "value": 1, "unit": "µg/mL"}, {"measurement": "MIC", "setting": "[1]; PAO1, P. aeruginosa PAO1, broth microdilution, read-out: Minimum inhibitory concentration, BMD", "value": 0.5, "unit": "µg/mL"}, {"measurement": "minimum inhibitory concentration (MIC), Standard", "setting": "[2]", "value": "⅛S"}, {"measurement": "susceptibility classification, HTFC", "setting": "[3]; P. aeruginosa Blood Culture B, antibiotic 4 hours (37° C.)", "value": "(S)"}, {"measurement": "susceptibility classification, HTFC", "setting": "[3]; P. aeruginosa Blood Culture C, antibiotic 4 hours (37° C.)", "value": "(S)"}, {"measurement": "susceptibility classification, HTFC", "setting": "[3]; P. aeruginosa PA7, antibiotic 4 hours (37° C.)", "value": "(S)"}, {"measurement": "susceptibility classification, HTFC", "setting": "[3]; P. aeruginosa PA46, antibiotic 4 hours (37° C.)", "value": "(S)"}, {"measurement": "susceptibility classification, HTFC", "setting": "[3]; P. aeruginosa PA49, antibiotic 4 hours (37° C.)", "value": "(S)"}, {"measurement": "susceptibility classification, HTFC", "setting": "[3]; P. aeruginosa PA81, antibiotic 4 hours (37° C.)", "value": "(R)"}, {"measurement": "susceptibility classification, HTFC", "setting": "[3]; P. aeruginosa PAO1, antibiotic 4 hours (37° C.)", "value": "(S)"}, {"measurement": "MIC", "setting": "[3]; 4 h, P. aeruginosa Blood Culture B, antibiotic 4 hours (37° C.)", "value": 2, "unit": "µg/mL"}, {"measurement": "MIC", "setting": "[3]; 4 h, P. aeruginosa Blood Culture C, antibiotic 4 hours (37° C.)", "value": 0.125, "unit": "µg/mL"}, {"measurement": "MIC", "setting": "[3]; 4 h, P. aeruginosa PA7, antibiotic 4 hours (37° C.)", "value": 2, "unit": "µg/mL"}, {"measurement": "MIC", "setting": "[3]; 4 h, P. aeruginosa PA46, antibiotic 4 hours (37° C.)", "value": 1, "unit": "µg/mL"}, {"measurement": "MIC", "setting": "[3]; 4 h, P. aeruginosa PA49, antibiotic 4 hours (37° C.)", "value": 0.5, "unit": "µg/mL"}, {"measurement": "MIC", "setting": "[3]; 4 h, P. aeruginosa PA81, antibiotic 4 hours (37° C.)", "value": 8, "unit": "µg/mL"}, {"measurement": "MIC", "setting": "[3]; PAO1, 4 h, P. aeruginosa PAO1, antibiotic 4 hours (37° C.)", "value": 2, "unit": "µg/mL"}, {"measurement": "susceptibility classification, BMD", "setting": "[4]; E. coli Blood Culture A", "value": "(S)"}, {"measurement": "susceptibility classification, BMD", "setting": "[4]; E. coli Blood Culture B", "value": "(S)"}, {"measurement": "susceptibility classification, BMD", "setting": "[4]; E. coli EC37", "value": "(S)"}, {"measurement": "susceptibility classification, BMD", "setting": "[4]; E. coli EC-bank", "value": "(I)"}, {"measurement": "susceptibility classification, BMD", "setting": "[4]; E. coli Mu76", "value": "(S)"}, {"measurement": "susceptibility classification, BMD", "setting": "[4]; E. coli Mu218", "value": "(S)"}, {"measurement": "susceptibility classification, BMD", "setting": "[4]; E. coli Mu890", "value": "(S)"}, {"measurement": "MIC", "setting": "[4]; E. coli Blood Culture A", "value": "≤ 0.06", "unit": "µg/mL"}, {"measurement": "MIC", "setting": "[4]; E. coli Blood Culture B", "value": "≤ 0.06", "unit": "µg/mL"}, {"measurement": "MIC", "setting": "[4]; E. coli EC37", "value": "≤ 0.06", "unit": "µg/mL"}, {"measurement": "MIC", "setting": "[4]; E. coli EC-bank", "value": 2, "unit": "µg/mL"}, {"measurement": "MIC", "setting": "[4]; E. coli Mu76", "value": 0.5, "unit": "µg/mL"}, {"measurement": "MIC", "setting": "[4]; E. coli Mu218", "value": "≤ 0.06", "unit": "µg/mL"}, {"measurement": "MIC", "setting": "[4]; E. coli Mu890", "value": "≤ 0.06", "unit": "µg/mL"}]}
